The text below walks through data of US9963461B2, “Phillygenin ibuprofen ester, preparation method therefor, and application thereof” (priority 2014, dated 2018).

Molecules are shown by their SMILES. Read-outs that look alike come from different tables or passages of the source. Marks after values point to notes of the source that are not given here.

Data set [1] has as its system Enterovirus EV71. The experiment in a line: Impact of the drugs on the virus-induced cytopathy (MTT). The following applies: EV71 100 TCID50, Vero cells, about the maximal non-cytotoxic concentration, 72 hours. The format is cell-based.
Data set [2] relates to influenza virus. Described as above. The class given is cell-based.
The test system of data set [3] is Adenovirus (AdV). The description is as above. The settings on record: ADV 100 TCID50, Vero cells, about the maximal non-cytotoxic concentration, 72 hours. The format is cell-based.
For data set [4], the system named is parainfluenza virus. The description is as above. The format is cell-based. The following applies: parainfluenza virus 100 TCID50, Vero cells, about the maximal non-cytotoxic concentration, 72 hours.
Data set [5] relates to Herpes Simplex Virus type I (HSV-1). The description is as above. The following applies: HSV-I 100 TCID50, Vero cells, about the maximal non-cytotoxic concentration, 72 hours. The format is cell-based.
In data set [6] the test system is influenza virus. The format is in vivo, Kunming mice. The settings on record: lung suspensions, influenza virus infected mice, 5 days.
The test system of data set [7] is parainfluenza virus. The class given is in vivo, Kunming mice. The settings on record: lung suspensions, parainfluenza virus infected mice, 5 days.
Data set [8] relates to respiratory syncytial virus (RSV). The experiment in a line: Impact of the drugs on the virus-induced cytopathy (MTT). The format is cell-based. The settings on record: RSV 100 TCID50, Vero cells, about the maximal non-cytotoxic concentration, 72 hours.
In data set [9] the test system is coxsackie virus B3 (CVB3). The data set is described as above. The format is cell-based. The settings on record: CVB3 100 TCID50, Vero cells, about the maximal non-cytotoxic concentration, 72 hours.
The test system of data set [10] is Coxsackie virus A16 (CoxA16). Described as above. The class given is cell-based. The following applies: CoxA16 100 TCID50, Vero cells, about the maximal non-cytotoxic concentration, 72 hours.
The subject of data set [11] is influenza virus. The class given is in vivo, Kunming mice. The settings on record: influenza virus infected mice; 19.5 mg/kg/d intragastric, 5 days.
For data set [12], the system named is parainfluenza virus. The class given is in vivo, Kunming mice. The following applies: parainfluenza virus infected mice; 19.5 mg/kg/d intragastric, 5 days.
Data set [13] relates to Vero cell. Put plainly: Cytotoxicity test on Vero cell (MTT). The following applies: 72 hours.

With `NC(=O)c1ncn([C@@H]2O[C@H](CO)[C@@H](O)[C@H]2O)n1` [Ribavirin, ribavirin], the “antiviral effective rate (ER %)” value in [1] is 4.25%; in [2], 57.49* %; in data set [3], 0.43%; in [4], 81.56** %; in data set [5], 60.92* %; in data set [8], 50.08* %. The “antiviral effective rate (ER %)” value was 13.44% in data set [9] and 0.70% in data set [10]. Also, the “Hemagglutination titer (InX)” value is 21.91 ± 1.050 in [6] (58.5 mg/kg/d) and 23.22 ± 1.091 in [7] (58.5 mg/kg/d). In addition, the “Hemagglutination titer Inhibitive rate (%)” value in [6] (58.5 mg/kg/d) worked out at 32.39%; in [7] (58.5 mg/kg/d) it was 24.53%.
With `CCOC(=O)C1=C[C@@H](OC(CC)CC)[C@H](NC(C)=O)[C@@H](N)C1` [Oseltamivir phosphate, oseltamivir phosphate], the “antiviral effective rate (ER %)” value is listed as 51.86% in data set [1]; 81.76** % in data set [2] (influenza virus 100 TCID50, Vero cells, about the maximal non-cytotoxic concentration, 72 hours); 10.31% in data set [3]; 94.52** % in [4]; 66.56** % in [5]; 37.60% in [8]. Further, the “antiviral effective rate (ER %)” value is listed as 1.64% in data set [9] and 2.95% in [10]. In addition, the entries for the “Lung index (X ± S)” value in data set [11] and in data set [12] were 1.178 ± 0.066 and 1.243 ± 0.052, respectively. The “Lung index Inhibitive rate (%)” value was determined as 19.84% in data set [11] and 21.85% in data set [12]. For the same molecule, the “Hemagglutination titer (InX)” value in [6] (19.5 mg/kg/d) was found to be 20.50 ± 1.122; in data set [7] (19.5 mg/kg/d), 22.05 ± 1.055. Also, the “Hemagglutination titer Inhibitive rate (%)” value is 36.73% in data set [6] (19.5 mg/kg/d) and 33.44% in data set [7] (19.5 mg/kg/d). In addition, the “Median toxic concentration (TC50)” value in data set [13] was 0.832 g/L. In [13], the “maximal non-toxic concentration (TC0)” value worked out at 0.28 g/L.
